The record followed here is PMC4145321, “Synthesis and Biological Evaluation of Novel 3-Alkylpyridine Marine Alkaloid Analogs with Promising Anticancer Activity” (Marine Drugs, 2014).

As usually defined, the IC50 is the midpoint of a concentration-inhibition curve. A low value points to greater potency in that assay.

“Also recorded” adds a separate entry of the source.

Data set [1] concerns RKO-AS-45-1 cells (colon carcinoma). The data set can be described thus: MTT cytotoxicity assay, RKO-AS-45-1. The class given is cell-based, human. The settings on record: for IC50: Homo sapiens, RKOAS451, MTT, 48 h incubation, triplicate, average ± SD; for Selectivity Index (SI) RKO AS-45-1: ratio of IC50 WI-26VA4 and IC50 RKO-AS-45-1. How it is done: (§1) The cytotoxicity of the compounds was assessed with the human cell lines, HeLa (cervix adenocarcinoma ATCC# CCl-2), RKO-AS-45-1 (colon carcinoma ATCC# CRL-2579) and WI-26 VA4 (fibroblast ATCC# CCL-95.1) using the MTT (3-(4,5-dimethylthiazol-2-yl)-2,5-diphenyltetrazolium bromide) (Sigma, St. Louis, MO, USA) colorimetric method. Briefly, the cells were plated in 96-well plates (1 × 10^5 cells/well) and incubated for 24 h at 37 °C in a humidified atmosphere with 5% CO2. After 24 h, the wells were washed with culture medium (RPMI +10% inactivated fetal calf serum + 2 mM L-glutamine) and incubated with the compounds at various concentrations (0.05 to 500 μM). After 48 h of incubation, the plates were treated with MTT. The colorimetric measurement was performed at 550 nm using the microplate reader, Spectramax M5e (Molecular Devices, Sunnyvale, CA, USA). Cytotoxicity was scored as the percent reduction in absorbance versus untreated control cultures. All experiments were performed in triplicate. The results are expressed as the mean of the IC50 (the lethal drug concentration that reduced cell viability by 50%). The IC50 values were calculated using OriginPro 8.0 (OriginLab Corporation, Northampton, MA, USA) software. A selectivity index (SI), corresponding to the ratio between the cytotoxic activities of each compound against the HeLa and RKO-AS-45-1 cell lines and the cytotoxicity against WI-26 VA4, was calculated as follows: […]
In general terms: Formazan colour is commonly taken as a measure of viable cells.

In data set [2] the test system is HeLa cells (cervix adenocarcinoma). The experiment in a line: MTT cytotoxicity assay, HeLa. The class given is cell-based, human. To be noted: for IC50: Homo sapiens, HeLa, MTT, 48 h incubation, triplicate, average ± SD; for Selectivity Index (SI) HeLa: ratio of IC50 WI-26VA4 and IC50 HeLa. Here is the method:
as §1

Data set [3] deals with RKO-AS-45-1 cells. The experiment in a line: Cytokinesis-block micronucleus assay. In kind it is cell-based, human. The settings on record: 3 h treatment. Here is the method:
To assess the potential of the synthetic alkaloids to induce DNA damage (chromosomal mutations) in vitro, the cytokinesis-block micronucleus assay was performed in the RKO-AS-45-1 cell line. The procedures were developed as described by Fenech, with adaptations. Briefly, the cells were seeded in 24-well plates (2.5 × 10^5 cells/well) and maintained at 37 °C in a humid atmosphere with 5% CO2. After 24 h, the cells were washed twice with PBS, and the treatments were performed in culture media without serum for three hours. Each treatment was performed in triplicate. The negative control group was treated with PBS, and a positive control group was established with the treatment of the cells with methyl methanesulfonate (MMS—400 μM).
After completing treatments with three concentrations lower than the IC50 of Compounds 4c (4.8, 9.6 and 14.3 μM) and 5c (5.9, 11.8, and 17.8 μM) diluted in culture media, the cells were washed twice with PBS, trypsinized and centrifuged for 5 min at 1200 rpm. The pellet was then resuspended in chilled hypotonic solution (1% sodium citrate) together with one drop of 1% formaldehyde and carefully homogenized with a Pasteur pipette. This cell suspension was centrifuged for 5 min at 1200 rpm and resuspended in 5 mL of fixative, methanol/acetic acid (3:1 v/v). Next, the tubes were centrifuged for 5 min, and the supernatant was discarded; the cell suspension was spread onto slides previously cleaned and covered with a film of chilled distilled water.
At the moment of cytogenetic analysis, the slides were stained with DAPI (4′,6-diamidino-2-phenylindole) diluted in phosphate buffer (0.06 M Na2HPO4 and 0.06 M KH2PO4, pH 6.8) for 2 min, washed with distilled water and analyzed under a fluorescent microscope (Zeiss, Axioscope) with an excitation filter of 365 nm and a barrier filter of 445/450 nm. Two thousands cells with a well-preserved cytoplasm were analyzed for each treatment in a blind test. Cells containing 1–3 micronuclei were scored. The criterion for the identification of MNs was according to a previous report. […]

Data set [4] has as its system RKO-AS-45-1 cells. The data set can be described thus: Frequency of binucleation (mitotic index). In kind it is cell-based, human. The settings on record: 300 cells counted. Here is the method: The influence of the synthetic alkaloids on cell division was assessed by calculating the frequency of binucleation in RKO-AS-45-1 cells. The same slides prepared for the micronucleus assay were used, and 300 cells with a well-preserved cytoplasm were counted using fluorescence microscopy, as described above. The frequency of binucleated cells was calculated as the proportion (percentage) of cells undergoing complete cell division after exposure to digoxin and controls.

Data set [5] concerns RKO-AS-45-1 cells. The experiment in a line: TUNEL apoptosis assay, RKO-AS-45-1. The class given is cell-based, human. The settings on record: 48 h; 4c at 5.1 μM, 5c at 19.1 μM. How it is done:
(§2) Apoptotic cell death was measured using the APO-BrdU TUNEL assay kit (Invitrogen, Carlsbad, CA, USA). Briefly, the effect of Compounds 4c and 5c and etoposide on DNA fragmentation was determined using Hela and RKO-AS-45-1 cells. The cells were incubated with the compounds for 48 h, as described above, and fixed using a solution of ice-cold 70% ethanol. The cells were then counterstained with 5-bromo-2′-deoxyuridine 5′-triphosphate (BrdUTP) in the presence of terminal deoxynucleotidyl transferase (TdT) and stained with an anti-BrdU monoclonal antibody-PRB-1 Alexa Fluor 488 conjugate, as previously described. The loaded cells were visualized by fluorescence microscopy using a Zeiss Axiovert 200 (Carl Zeiss, Oberkochen, Germany).

The next data set has as its system HeLa cells. The experiment in a line: TUNEL apoptosis assay, HeLa. In kind it is cell-based, human. To be noted: 48 h; 4c at 19.1 μM, 5c at 8.5 μM. How it is done: as §2
Data set [6] has as its system WI-26VA4 cells (lung fibroblast, non-cancerous). The experiment in a line: MTT cytotoxicity assay, WI-26VA4. In kind it is cell-based. The settings on record: Homo sapiens, WI26VA4, 48 h incubation, triplicate, average ± SD. Here is the method: The cytotoxicity of the compounds was assessed with the human cell lines, HeLa (cervix adenocarcinoma ATCC# CCl-2), RKO-AS-45-1 (colon carcinoma ATCC# CRL-2579) and WI-26 VA4 (fibroblast ATCC# CCL-95.1) using the MTT (3-(4,5-dimethylthiazol-2-yl)-2,5-diphenyltetrazolium bromide) (Sigma, St. Louis, MO, USA) colorimetric method. Briefly, the cells were plated in 96-well plates (1 × 10^5 cells/well) and incubated for 24 h at 37 °C in a humidified atmosphere with 5% CO2. After 24 h, the wells were washed with culture medium (RPMI +10% inactivated fetal calf serum + 2 mM L-glutamine) and incubated with the compounds at various concentrations (0.05 to 500 μM). After 48 h of incubation, the plates were treated with MTT. The colorimetric measurement was performed at 550 nm using the microplate reader, Spectramax M5e (Molecular Devices, Sunnyvale, CA, USA). Cytotoxicity was scored as the percent reduction in absorbance versus untreated control cultures. All experiments were performed in triplicate. […] The IC50 values were calculated using OriginPro 8.0 (OriginLab Corporation, Northampton, MA, USA) software. A selectivity index (SI), corresponding to the ratio between the cytotoxic activities of each compound against the HeLa and RKO-AS-45-1 cell lines and the cytotoxicity against WI-26 VA4, was calculated as follows: SI = […].

Data set [7] relates to actin cytoskeleton of RKO-AS-45-1 cells. The experiment in a line: Actin polymerization by fluorescence microscopy. To be noted: 19.1 μM, 24 h, phalloidin Alexa Fluor 488. The class given is cell-based, human. Here is the method:
The control with non-treated cells was included in parallel. After 24 h, the cells were rinsed in phosphate-buffered saline (PBS) for 3 min, fixed in paraformaldehyde (#15,812-7, Sigma) at 4% in PBS for 1 h and permeabilized with 0.1% Triton X-100 (#17-1315-01, Plusone, GE Healthcare, Fairfield, CA, USA) in PBS for 10 min. The RKO-AS-45-1 cells were labeled with Phalloidin Alexa Fluor® 488 (#A12379, Molecular Probes, Eugene, OR, USA), and the nuclei were counterstained with 4,6-diaminidino-2-phenylindole (DAPI; Molecular Probes, #D1306) according to the manufacturer’s instructions. Image acquisition was performed using an AxioVert 200 microscope (Carl Zeiss, Oberkochen, Germany).

With `c1cncc(CCCOCCCCCCOC2CCCCO2)c1` (stereo not shown) [Compound 4a, 1-[3-(pyridin-3-yl)propoxy]-6-(oxan-2-yloxy)hexane], the half-inhibitory concentration (IC50) in data set [1] and in data set [2] was greater than 300 µM throughout.

As to `c1cncc(CCCOCCCCCCCCOC2CCCCO2)c1` (stereo not shown) [Compound 4b, 1-[3-(pyridin-3-yl)propoxy]-8-(oxan-2-yloxy)octane], in data set [1], the IC50 turned out to be 23.7 ± 1.7 µM and the “Selectivity Index (SI) RKO AS-45-1” value is recorded as 1.59. For the same molecule, in data set [2], the concentration for half-maximal inhibition (IC50) came to 8.1 ± 2.7 µM and the “Selectivity Index (SI) HeLa” value amounted to 4.66.

`c1cncc(CCCOCCCCCCCCCCOC2CCCCO2)c1` (stereo not shown) [Compound 4c, 1-[3-(pyridin-3-yl)propoxy]-10-(oxan-2-yloxy)decane]: the results for the half-maximal inhibitory concentration (IC50) in data set [1] and in data set [2] were 5.1 ± 1.1 µM and 4 ± 0.8 µM, respectively. In addition, in data set [1], the “Selectivity Index (SI) RKO AS-45-1” value was 1.25. For the same molecule, in data set [2], the “Selectivity Index (SI) HeLa” value is reported as 1.60. Further, the “Micronucleus frequency vs control” value with RKO-AS-45-1 cells [3] (2.5 and 4.0 μM (two highest concentrations), 2000 binucleated cells, p < 0.05) is reported as “significantly higher than that detected in the control; also recorded: statistically higher than that identified in the control group”; with RKO-AS-45-1 cells [3] (lower concentrations evaluated), “did not induce significant alterations in the MN frequency”. Besides, the “Frequency of binucleation vs negative control” value with RKO-AS-45-1 cells [4] (two highest concentrations assessed) was “reduced the binucleation frequency”. In addition, the “Apoptosis induction (TUNEL)” value in the data set with RKO-AS-45-1 cells [5] and in the data set on HeLa cells was “promoted apoptosis” in each case.

For `c1cncc(CCCOCCCCCCCCCCCCOC2CCCCO2)c1` (stereo not shown) [Compound 4d, 1-[3-(pyridin-3-yl)propoxy]-12-(oxan-2-yloxy)dodecane], in data set [1], the IC50 worked out at 3.2 ± 1.7 µM and the “Selectivity Index (SI) RKO AS-45-1” value amounted to 3.53. In data set [2], the concentration for half-maximal inhibition (IC50) was 9.4 ± 0.7 µM and the “Selectivity Index (SI) HeLa” value worked out at 1.20.

`OCCCCCCOCCCc1cccnc1` [Compound 5a, 6-[3-(pyridin-3-yl)propoxy]hexan-1-ol]: the IC50 in data set [1] and in data set [2] was greater than 400 µM in each case.

With `OCCCCCCCCOCCCc1cccnc1` [Compound 5b, 8-[3-(pyridin-3-yl)propoxy]octan-1-ol], the values for the half-inhibitory concentration (IC50) in data set [1], in data set [2] and in data set [6] were greater than 300 µM, 192 ± 10.1 µM and 167 ± 10.5 µM, respectively. Also, the “Selectivity Index (SI) HeLa” value in data set [2] was 0.87.

For `OCCCCCCCCCCOCCCc1cccnc1` [Compound 5c, 10-[3-(pyridin-3-yl)propoxy]decan-1-ol], in data set [1], the IC50 is 19.1 ± 4.4 µM and the “Selectivity Index (SI) RKO AS-45-1” value was 5.18. Moreover, in data set [2], the concentration for half-maximal inhibition (IC50) was found to be 8.5 ± 2.4 µM and the “Selectivity Index (SI) HeLa” value amounted to 11.65. Also, in the data set with RKO-AS-45-1 cells [3] (17.8 μM (highest concentration), 2000 binucleated cells, p < 0.05), the “Micronucleus frequency vs control” value is on record as “significantly higher than that found in the control; also recorded: statistically higher than that identified in the control group”. Further, the “Frequency of binucleation / proliferation rate vs control” value in the data set on RKO-AS-45-1 cells [4] (highest concentration assessed, p < 0.05) was “reduced the proliferation rate; also recorded: induced a reduction in the proliferation rate”. Also, in the data set with RKO-AS-45-1 cells [5], the “Apoptosis induction (TUNEL)” value is “promoted apoptosis”. The “Apoptosis induction (TUNEL)” value with HeLa cells is given as “promoted apoptosis”. The “Effect on actin cytoskeleton / actin polymerization” value in data set [7] is given as “actin polymerization is altered; also recorded: accentuated alteration of the cellular actin network”.

With `OCCCCCCCCCCCCOCCCc1cccnc1` [Compound 5d, 12-[3-(pyridin-3-yl)propoxy]dodecan-1-ol], in data set [1], 132 ± 16.8 µM corresponded to half-maximal inhibition (IC50) and the “Selectivity Index (SI) RKO AS-45-1” value was 0.25. In data set [2], the half-inhibitory concentration (IC50) turned out to be 8.8 ± 1.9 µM and the “Selectivity Index (SI) HeLa” value was determined as 3.87.

As for `COc1cc([C@@H]2c3cc4c(cc3[C@@H](O[C@@H]3O[C@@H]5CO[C@@H](C)O[C@H]5[C@H](O)[C@H]3O)[C@H]3COC(=O)[C@H]23)OCO4)cc(OC)c1O` [Etoposide, reference compound], the results for the concentration for half-maximal inhibition (IC50) in data set [1] and in data set [2] were 1.4 ± 0.6 µM and 2.7 ± 0.4 µM, respectively.
